In ChEMBL document CHEMBL4196098, “Structure-Activity Relationships and Therapeutic Potentials of 5-HT7 Receptor Ligands: An Update” (J Med Chem, 2018) one finds Ki, CLint scaled and Kp data, which are given here for 10 compounds.

Structures are written as SMILES.

Data set [1] deals with T1, 5-hydroxytryptamine receptor 7 (Rattus norvegicus, UniProt P32305). The data set can be described thus: Displacement of [3H]-5-CT from 5-HT7 receptor in rat hypothalamus membranes by Cheng-Prusoff equation analysis. Format: cell membranes, Membrane. (Loss of bound radioactivity is the signal in a displacement assay; it reports binding, not function.)
Data set [2] concerns the target 5-hydroxytryptamine receptor 7 (Homo sapiens, UniProt P34969). The data set can be described thus: Binding affinity to 5-HT7 receptor (unknown origin).
Data set [3] is described as follows: Intrinsic clearance in human liver microsomes. It is filed as ADME, microsome. The settings on record: read-out: CLH.
A short description of data set [4]: Ratio of drug level in brain to plasma in mouse at 5 mg/kg, ip. It is filed as ADME, organism-based. The settings on record: read-out: BPR.
The target of data set [5] is T1, 5-hydroxytryptamine receptor 7. As to the kind of experiment: Displacement of [3H]lysergide from rat recombinant 5-HT7 receptor expressed in HEK293 cell membranes incubated for 60 mins by radioligand binding assay.
Data set [6] concerns the target T2, 5-hydroxytryptamine receptor 1A (Rattus norvegicus, UniProt P19327).
T2 sequence (P19327 whole entry): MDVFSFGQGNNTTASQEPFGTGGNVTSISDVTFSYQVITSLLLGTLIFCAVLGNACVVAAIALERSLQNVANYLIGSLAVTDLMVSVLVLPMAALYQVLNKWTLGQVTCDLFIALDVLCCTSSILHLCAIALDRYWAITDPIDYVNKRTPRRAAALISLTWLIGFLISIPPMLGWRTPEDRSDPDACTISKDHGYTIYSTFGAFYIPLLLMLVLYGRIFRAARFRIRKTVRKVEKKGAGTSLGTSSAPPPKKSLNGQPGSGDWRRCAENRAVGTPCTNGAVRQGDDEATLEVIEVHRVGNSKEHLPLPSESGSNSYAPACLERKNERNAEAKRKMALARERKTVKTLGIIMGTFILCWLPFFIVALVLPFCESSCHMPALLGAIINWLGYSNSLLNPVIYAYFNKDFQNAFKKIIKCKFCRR
As to the kind of experiment: Displacement of [3H]-8-OH-DPAT from 5-HT1A in rat hippocampal membranes incubated for 20 mins by radioligand binding assay. It is filed as cell membranes.

Data set [7] concerns the target T1, 5-hydroxytryptamine receptor 7. As to the kind of experiment: Displacement of [3H]5-CT from rat 5-HT7 receptor expressed in HEK293 cell membranes by radioligand binding assay.
Data set [8] addresses T3, 5-hydroxytryptamine receptor 2C (Homo sapiens, UniProt P28335).
T3 sequence (P28335 whole entry): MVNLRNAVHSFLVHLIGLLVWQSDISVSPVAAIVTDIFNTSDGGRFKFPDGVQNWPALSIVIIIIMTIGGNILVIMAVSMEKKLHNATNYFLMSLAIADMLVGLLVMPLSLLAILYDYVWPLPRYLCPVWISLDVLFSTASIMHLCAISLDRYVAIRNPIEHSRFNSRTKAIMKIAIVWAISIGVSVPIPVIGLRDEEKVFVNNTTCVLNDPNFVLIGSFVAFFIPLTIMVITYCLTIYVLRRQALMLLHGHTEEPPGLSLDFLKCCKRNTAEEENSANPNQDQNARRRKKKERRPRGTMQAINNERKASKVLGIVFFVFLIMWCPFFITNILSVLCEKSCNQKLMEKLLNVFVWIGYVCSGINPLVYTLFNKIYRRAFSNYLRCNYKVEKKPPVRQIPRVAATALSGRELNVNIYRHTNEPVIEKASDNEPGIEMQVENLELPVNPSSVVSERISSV
The data set can be described thus: Binding affinity to 5-HT2c receptor (unknown origin).

The target of data set [9] is 5-hydroxytryptamine receptor 2A (Homo sapiens, UniProt P28223). As to the kind of experiment: Binding affinity to 5-HT2A receptor (unknown origin).
Chain of 5-hydroxytryptamine receptor 2A (P28223 whole entry): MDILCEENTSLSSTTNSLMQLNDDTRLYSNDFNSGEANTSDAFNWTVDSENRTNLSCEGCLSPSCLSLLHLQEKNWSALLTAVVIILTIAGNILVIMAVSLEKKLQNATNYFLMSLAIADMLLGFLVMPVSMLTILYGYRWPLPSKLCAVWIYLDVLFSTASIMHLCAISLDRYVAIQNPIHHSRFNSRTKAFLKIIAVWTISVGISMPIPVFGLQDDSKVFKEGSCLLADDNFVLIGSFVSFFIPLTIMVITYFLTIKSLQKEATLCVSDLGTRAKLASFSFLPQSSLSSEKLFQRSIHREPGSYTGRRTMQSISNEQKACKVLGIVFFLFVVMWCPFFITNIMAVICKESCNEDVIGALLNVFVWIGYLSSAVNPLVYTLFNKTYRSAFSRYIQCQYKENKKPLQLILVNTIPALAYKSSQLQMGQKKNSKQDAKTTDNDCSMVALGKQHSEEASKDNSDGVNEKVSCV

Chain of 5-hydroxytryptamine receptor 7 (Homo sapiens, UniProt P34969) (P34969 whole entry): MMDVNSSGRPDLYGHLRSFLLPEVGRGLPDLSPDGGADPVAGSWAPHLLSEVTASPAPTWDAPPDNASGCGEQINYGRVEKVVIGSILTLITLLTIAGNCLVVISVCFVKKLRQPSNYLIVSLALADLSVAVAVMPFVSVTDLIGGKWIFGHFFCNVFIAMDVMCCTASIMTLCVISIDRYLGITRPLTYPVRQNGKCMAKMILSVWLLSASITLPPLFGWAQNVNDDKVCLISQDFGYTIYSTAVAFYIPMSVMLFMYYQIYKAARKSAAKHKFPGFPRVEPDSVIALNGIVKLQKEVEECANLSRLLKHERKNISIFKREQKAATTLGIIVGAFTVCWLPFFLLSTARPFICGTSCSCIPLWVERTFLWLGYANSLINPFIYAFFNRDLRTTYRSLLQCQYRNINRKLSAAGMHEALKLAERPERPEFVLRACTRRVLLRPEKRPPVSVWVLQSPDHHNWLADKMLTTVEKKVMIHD
T1 sequence (P32305 whole entry): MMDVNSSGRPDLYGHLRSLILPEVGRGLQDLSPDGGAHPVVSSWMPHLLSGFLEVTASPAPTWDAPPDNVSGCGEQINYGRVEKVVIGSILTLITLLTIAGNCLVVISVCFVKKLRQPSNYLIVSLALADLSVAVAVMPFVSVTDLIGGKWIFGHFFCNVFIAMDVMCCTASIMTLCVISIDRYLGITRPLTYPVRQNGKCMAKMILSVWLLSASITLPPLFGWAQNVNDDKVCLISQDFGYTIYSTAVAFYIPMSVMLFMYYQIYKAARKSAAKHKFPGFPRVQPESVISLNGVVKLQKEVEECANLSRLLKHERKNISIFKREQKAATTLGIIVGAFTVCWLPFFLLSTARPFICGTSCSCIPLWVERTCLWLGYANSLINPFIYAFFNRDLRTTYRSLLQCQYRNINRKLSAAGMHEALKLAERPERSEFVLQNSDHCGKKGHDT

The term Ki denotes the equilibrium dissociation constant of an inhibitor or competing ligand from its target. With `O=C1c2cccc3cccc(c23)N1CCCCCN1CCN(c2ccccc2)CC1` [UCM-5600], the affinity in data set [1] corresponds to a Ki of 89 nM.

In [2], `Cc1nn(C)c(C)c1-c1cccc(CCN(C)C)c1` displayed an inhibition constant (Ki) of 2.5 nM.

Turning to `Cc1nn(C)c(C)c1-c1ccc(O)c(CCN(C)C)c1`, the Ki in data set [2] came out at 0.47 nM.

In the case of `CCn1cncc1-c1c[nH]c2ccc(OC)cc12`, the CLint scaled in data set [3] was found to be 3.69 mL/min/kg. Also, in data set [4], the Kp stood at 6.34.

On to `COc1cccc(CCN2CCN(c3ccccc3-c3ccccc3)CC2)c1`, for which the Ki in [5] is 7.5 nM; in [6], 20 nM.

As for `Clc1ccc(-c2nn(Cc3ccccc3)c3c2CCNCC3)cc1` [JNJ-18038683 FREE BASE], in data set [7], the Ki came out at 6.5 nM.

`CNC(=O)CN1c2ccccc2C2CCN(CCCCC34CCCc5cccc(c53)NC4=O)CC21` (centres undefined) registered a Ki in data set [2] of 4 nM.

On to `Cc1ccc2c(c1)c1c(n2CCc2ccccc2)CCN(C)C1` [MARITUPIRDINE], for which the Ki in data set [8] and in data set [9] was 1.2 to 2 nM throughout.

In the case of `COc1cccc(CCN2CCN(c3ccccc3OC)CC2)c1`, the inhibition constant (Ki) is 24.5 nM in [5] and 2.37 nM in [6].

For the compound `CCn1cncc1-c1c[nH]c2ccc(I)cc12`, the CLint scaled in [3] was 6.3 mL/min/kg.
